Results published in patent US7109380B2, “Cyclopentenedione antifungal compounds and methods for their use” (The University of Mississippi, priority 2004, dated 2006).
pIC50: −log10 of the molar value. Converted amounts (≈) assume the structure as drawn.

What was measured:
Format in all cases: cell-based
Fusarium oxysporum = experiment: 96-well microtiter fungal growth assay;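 note: percent relative to untreated positive growth controls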
Text: (§1) Pathogen collection. Isolates of Colletotrichum acutatum Simmonds, Colletotrichum fragariae Brooks, and Colletotrichum gloeosporioides (Penz.) Penz. & Sacc. in Penz. were obtained from B. J. Smith, USDA, ARS, Small Fruit Research Station, Poplarville, Mass. Colletotrichum fragariae (isolate CF63), C. acutatum (isolate CAGoff), and C. gloeosporioides (isolate CG162) were used for all pathogen and bioautography studies. Isolate CF63 is one of the most virulent isolates at infecting strawberry plants and inducing both crown and fruit rot (Smith and Black, 1990). CF63, CAGoff, and CG162 were used as standard test isolates because of our extensive knowledge of these isolates and their known fungicide sensitivity profiles in both bioautography and microtiter formats. The three Colletotrichum species were isolated from strawberry (Fragaria xananassa Duchesne). Botrytis cinerea Pers.:Fr, was isolated from commercial grape (Vitis vinifera L.) and Fusarium oxysporum Schlechtend:Fr from orchid (Cynoches sp.) by David E. Wedge, USDA ARS Natural Products Utilization Research Unit. Phomopsis viticola (Sacc.) and P. obscurans (Ellis & Everh.) Sutton were from Mike A. Ellis, Ohio State University, Wooster, Ohio. Fungi were grown on potato-dextrose agar (PDA, Difco, Detroit Mich.) in 9 cm petri dishes and incubated in a growth chamber at 24±2° C. and under cool-white fluorescent lights ([…]·m^−2·sec^−1 light) with 12-h photoperiod.
(§2) Inoculum preparation. Conidia were harvested from 7–10 day-old cultures by flooding plates with 5 mL of sterile distilled water and dislodging conidia by softly brushing the colonies with an L-shaped glass rod. Conidial suspensions were filtered through sterile miracloth (Calbiochem-Novabiochem Corp., La Jolla Calif.) to remove mycelia. Conidia concentrations were determined photometrically, from a standard curve based on the absorbance at 625 nm and suspensions were then adjusted with sterile distilled water to a concentration of 1.0×10^6 conidia/mL.
(§3) Microtiter assay. A standardized 96-well microtiter plate assay developed for discovery of natural product fungicidal agents. A 96-well microtiter assay was used to determine sensitivity of B. cinerea, C. acutatum, C. fragariae, C. gloeosporioides, F. oxysporum, Phomopsis viticola, and P. obscurans to the various antifungal agents in comparison with known fungicidal standards. Vinclozolin, captan, and thiabendazole, which represent three different modes of action, were used as standards in this experiment. Each fungus was challenged in a dose-response format using test compounds where the final treatment concentrations were 0.3, 3.0 and 30.0 μM. Microtiter plates (Nunc MicroWell, untreated; Roskilde, Denmark) were covered with a plastic lid and incubated in a growth chamber at 24±1 C and 12 h photoperiod under 60±5 μmol light. Growth was then evaluated by measuring absorbance of each well at 620 nm using a microplate photometer (Packard Spectra Count, Packard Instrument Co., Downers Grove, Ill.).
(§4) Microbioassay Experimental Design. Chemical sensitivity of each fungus 96-well microtiter assay is used to determine sensitivity of B. cinerea, C. acutatum, C. fragariae, C. gloeosporioides, F. oxysporum, Phomopsis viticola, and P. obscurans. Each chemical is evaluated in duplicate at each dose (0.3, 3.0 and 30.0 μM) and repeated twice in time. Sixteen wells containing broth and inoculum serves as positive controls, eight wells containing solvent at the appropriate concentration and broth without inoculum are used as negative controls. Mean absorbance values and standard errors is used to evaluate fungal growth at 48 hrs and 72 hrs except for P. obscurans and P. viticola the data are recorded at 120 hrs. […] Treatments are arranged as a split-plot design replicated twice in time. Whole-plots were fungal isolates and sub-plots are chemicals. Each dose level and response time is analyzed separately. […]

[1] = test system: Colletotrichum gloeosporioides; experiment: 96-well microtiter fungal growth assay;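 note: percent relative to untreated positive growth controls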
Text: as §1, §2, §3, §4

Botrytis cinerea = experiment: 96-well microtiter fungal growth assay;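 note: percent relative to untreated positive growth controls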
Text: as §1, §2, §3, §4

Colletotrichum fragariae = experiment: 96-well microtiter fungal growth assay;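 note: percent relative to untreated positive growth controls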
Text: as §1, §2, §3, §4

Colletotrichum acutatum = experiment: 96-well microtiter fungal growth assay;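 note: percent relative to untreated positive growth controls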
Text: as §1, §2, §3, §4

Phomopsis obscurans = experiment: 96-well microtiter fungal growth assay
Text: as §1, §2, §3
(§5) Microbioassay Experimental Design. Chemical sensitivity of each fungus 96-well microtiter assay is used to determine sensitivity of B. cinerea, C. acutatum, C. fragariae, C. gloeosporioides, F. oxysporum, Phomopsis viticola, and P. obscurans. Each chemical is evaluated in duplicate at each dose (0.3, 3.0 and 30.0 μM) and repeated twice in time. Sixteen wells containing broth and inoculum serves as positive controls, eight wells containing solvent at the appropriate concentration and broth without inoculum are used as negative controls. […] Treatments are arranged as a split-plot design replicated twice in time. Whole-plots were fungal isolates and sub-plots are chemicals. Each dose level and response time is analyzed separately. The SAS system's analysis of variance procedure (Statistical Analysis System, Cary, N.C.) is used to identify significant factors and Fisher's protected LSD is used to separate means.

Phomopsis viticola = experiment: 96-well microtiter fungal growth assay;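 note: percent relative to untreated positive growth controls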
Text: as §1, §2, §3, §5

[2] = test system: Azole-susceptible and Azole-resistant Candida albicans Strains; experiment: Antifungal activity against azole-susceptible and azole-resistant patient isolates; settings: for IC50 / IC80: Candida albicans
Method: Antimicrobial Assay. Susceptibility testing is performed using a modified version of the National Committee for Clinical Laboratory Standards methods. M intracelluare is tested using a modified method of Franzblau, et al. Seventy-two to 96 h prior to the assay, the M intracellulare subculture is prepared by resuspending cells from the surface of the slant in Middlebrook 7H9 broth with OADC enrichment and incubating at 37° C. and 10% CO2. On the day of the assay, prepared samples (dissolved in DMSO) are serially-diluted using 20%/0.9% DMSO/saline and transferred in duplicate to 96 well flat bottom microplates. Candida spp. and C. neoformans inocula are prepared by picking 1–3 colonies from agar plates and resuspending in ˜5 mL 0.9% sterile saline. The absorption of 10011 of the saline suspensions and the M. intracellulare subculture at 630 nm using the EL-340 Biokinetics Reader (Bio-Tek Instruments, Vermont) is compared either the 0.5 McFarland standard of 0.03 (Mi) or standard curves. The microorganisms are diluted in broth [RPMI 1640/2% dextrose/MOPS at pH 7.3 (Cellgro) for Candida spp., Sabouraud Dextrose for C. neoformans, and 5% Alamar Blue™(BioSource International, Camarillo, Calif.) in Middlebrook 7H9 broth with OADC enrichment, pH=7.3 for M. intracellulare to afford final target inocula of: Candida spp.: 1.0×10^4, C. neoformans: 1.0×10^5, and M. intracellulare: 2.0×10^6 after addition to the samples. The microbial inocula are added to the samples to achieve a final volume of 200 μl. Growth (saline only), solvent and blank (media only) controls are included on each test plate. Drug controls [Ciprofloxacin (ICN Biomedicals, Ohio) for bacteria and Amphotericin B (ICN Biomedicals, Ohio) for fungi] are included in each assay. All organisms are read at either 630 nm using the EL-340 Biokinetics Reader (Bio-Tek Instruments, Vermont) or 544ex/590em, (M. intracellulare) using the Polarstar Galaxy Plate Reader (BMG LabTechnologies, Germany) prior to and after incubation: Candida spp. at 37° C. for 18–24 h, C. neoformans at 30° C. for 72 h, and M. intracellulare at 37° C. and 10% CO2 for 72 h. Percent growth is calculated and plotted versus test concentration to afford the IC50 (sample concentration that affords 50% growth of the organism) and the minimum inhibitory concentration (MIC) and minimum fungicidal or bactericidal concentrations (MFC/MBCs). The MIC is defined as the lowest test concentration that allows no detectable growth (for M. intracellulare no color change from blue to pink). Minimum fungicidal or bactericidal concentrations are determined by removing 5 μl from each clear (or blue) well, transferring to agar and incubating as previously mentioned. The MFC/MBC is defined as the lowest test concentration that kills 100% of the organism (allows no growth on agar).
The bioassay method is a modified version of the National Committee for Clinical Laboratory Standards methods, and is same as the one described in example 8 by which the biological data of compounds 1 and 2 (Tables 1 and 2) were obtained, except that the pH of the culture media for Candida spp. was changed from 7.3 to 4.5.

[3] = Isolate 1, azole-susceptible strain (first listing, r6)
[4] = Isolate 1, azole-susceptible strain (second listing, r10)
[5] = Isolate 2, azole-resistant strain
[6] = Isolate 5, azole-resistant strain
[7] = Isolate 8, azole-resistant strain
[8] = Isolate 17, azole-resistant strain

CO/C=C(/C(=O)OC)c1ccccc1Oc1cc(Oc2ccccc2C#N)ncn1 [Azoxystrobin]
Mean percent fungal growth inhibition of Fusarium oxysporum (Fusarium oxysporum; 0.3 μm, 48 hrs): −13.0 ± 6.0%
Mean percent fungal growth inhibition of Fusarium oxysporum (Fusarium oxysporum; 0.3 μm, 72 hrs): 3.8 ± 3.6%
Mean percent fungal growth inhibition of Fusarium oxysporum (Fusarium oxysporum; 3.0 μm, 48 hrs): −66.4 ± 1.4%
Mean percent fungal growth inhibition of Fusarium oxysporum (Fusarium oxysporum; 3.0 μm, 72 hrs): −40.1 ± 3.5%
Mean percent fungal growth inhibition of Fusarium oxysporum (Fusarium oxysporum; 30 μm, 48 hrs): −87.3 ± 0.6%
Mean percent fungal growth inhibition of Fusarium oxysporum (Fusarium oxysporum; 30 μm, 72 hrs): −64.6 ± 0.8%
Mean percent fungal growth inhibition of Colletotrichum gloeosporoides ([1]; 0.3 μm, 48 hrs): −91.2 ± 2.1%
Mean percent fungal growth inhibition of Colletotrichum gloeosporoides ([1]; 0.3 μm, 72 hrs): −71.0 ± 1.4%
Mean percent fungal growth inhibition of Colletotrichum gloeosporoides ([1]; 3.0 μm, 48 hrs): −96.3 ± 0.9%
Mean percent fungal growth inhibition of Colletotrichum gloeosporoides ([1]; 3.0 μm, 72 hrs): −87.6 ± 2.0%
Mean percent fungal growth inhibition of Colletotrichum gloeosporoides ([1]; 30 μm, 48 hrs): −97.7 ± 0.5%
Mean percent fungal growth inhibition of Colletotrichum gloeosporoides ([1]; 30 μm, 72 hrs): −89.8 ± 1.1%
Mean percent fungal growth inhibition of Botrytis cinerea (Botrytis cinerea; 0.3 μm, 48 hrs): −30.4 ± 40.8%
Mean percent fungal growth inhibition of Botrytis cinerea (Botrytis cinerea; 0.3 μm, 72 hrs): −67.3 ± 7.6%
Mean percent fungal growth inhibition of Botrytis cinerea (Botrytis cinerea; 3.0 μm, 48 hrs): −45.8 ± 32.5%
Mean percent fungal growth inhibition of Botrytis cinerea (Botrytis cinerea; 3.0 μm, 72 hrs): −79.8 ± 3.6%
Mean percent fungal growth inhibition of Botrytis cinerea (Botrytis cinerea; 30 μm, 48 hrs): −58.3 ± 26.5%
Mean percent fungal growth inhibition of Botrytis cinerea (Botrytis cinerea; 30 μm, 72 hrs): −89.1 ± 2.1%
Mean percent fungal growth inhibition of Colletotrichum fragariae (Colletotrichum fragariae; 0.3 μm, 48 hrs): −68.8 ± 4.0%
Mean percent fungal growth inhibition of Colletotrichum fragariae (Colletotrichum fragariae; 0.3 μm, 72 hrs): −33.5 ± 17.4%
Mean percent fungal growth inhibition of Colletotrichum fragariae (Colletotrichum fragariae; 3.0 μm, 48 hrs): −78.9 ± 4.4%
Mean percent fungal growth inhibition of Colletotrichum fragariae (Colletotrichum fragariae; 3.0 μm, 72 hrs): −80.6 ± 4.8%
Mean percent fungal growth inhibition of Colletotrichum fragariae (Colletotrichum fragariae; 30 μm, 48 hrs): −82.0 ± 4.9%
Mean percent fungal growth inhibition of Colletotrichum fragariae (Colletotrichum fragariae; 30 μm, 72 hrs): −86.4 ± 4.5%
Mean percent fungal growth inhibition of Colletotrichum acutatum (Colletotrichum acutatum; 0.3 μm, 48 hrs): −75.1 ± 1.8%
Mean percent fungal growth inhibition of Colletotrichum acutatum (Colletotrichum acutatum; 0.3 μm, 72 hrs): −46.0 ± 1.4%
Mean percent fungal growth inhibition of Colletotrichum acutatum (Colletotrichum acutatum; 3.0 μm, 48 hrs): −89.2 ± 1.8%
Mean percent fungal growth inhibition of Colletotrichum acutatum (Colletotrichum acutatum; 3.0 μm, 72 hrs): −77.4 ± 1.6%
Mean percent fungal growth inhibition of Colletotrichum acutatum (Colletotrichum acutatum; 30 μm, 48 hrs): −94.3 ± 1.1%
Mean percent fungal growth inhibition of Colletotrichum acutatum (Colletotrichum acutatum; 30 μm, 72 hrs): −84.1 ± 0.8%
Percent change in fungal growth vs control (negative = inhibition) (Phomopsis obscurans; 0.3 μm, 120 hrs): −73.2 ± 6.7%
Percent change in fungal growth vs control (negative = inhibition) (Phomopsis obscurans; 0.3 μm, 144 hrs): −70.2 ± 7.0%
Percent change in fungal growth vs control (negative = inhibition) (Phomopsis obscurans; 3.0 μm, 120 hrs): −90.9 ± 6.5%
Percent change in fungal growth vs control (negative = inhibition) (Phomopsis obscurans; 3.0 μm, 144 hrs): −87.5 ± 5.3%
Percent change in fungal growth vs control (negative = inhibition) (Phomopsis obscurans; 30 μm, 120 hrs): −99.3 ± 0.5%
Percent change in fungal growth vs control (negative = inhibition) (Phomopsis obscurans; 30 μm, 144 hrs): −98.2 ± 0.6%
Mean percent fungal growth inhibition of Phomopsis viticola (Phomopsis viticola; 0.3 μm, 120 hrs): −29.5 ± 45.0%
Mean percent fungal growth inhibition of Phomopsis viticola (Phomopsis viticola; 0.3 μm, 144 hrs): −73.4 ± 16.0%
Mean percent fungal growth inhibition of Phomopsis viticola (Phomopsis viticola; 3.0 μm, 120 hrs): −124.5 ± 33.0%
Mean percent fungal growth inhibition of Phomopsis viticola (Phomopsis viticola; 30 μm, 120 hrs): −154.1 ± 39.4%
Mean percent fungal growth inhibition of Phomopsis viticola (Phomopsis viticola; 30 μm, 144 hrs): −97.9 ± 1.3%

OC(Cn1cncn1)(Cn1cncn1)c1ccc(F)cc1F [Fluconazole, reference compound]
IC50 [2, 3]: 1 µg/mL (≈ 3.27 µM)
IC80 [2, 3]: 1.5 µg/mL (≈ 4.9 µM)
IC50 [2, 4]: 0.1 µg/mL (≈ 0.327 µM)
IC80 [2, 4]: 0.2 µg/mL (≈ 0.653 µM)
IC50 [2, 5]: 1 µg/mL (≈ 3.27 µM)
IC80 [2, 5]: 5 µg/mL (≈ 16.3 µM)
IC50 [2, 6]: 7.5 µg/mL (≈ 24.5 µM)
IC80 [2, 6]: 10 µg/mL (≈ 32.7 µM)
IC50 [2, 7]: 15 µg/mL (≈ 49 µM)
IC80 [2, 7]: 20 µg/mL (≈ 65.3 µM)
IC50 [2, 8]: 40 µg/mL (≈ 131 µM)
IC80 [2, 8]: 95 µg/mL (≈ 310 µM)
IC95 [2, 3]: 2.00 µg/mL (≈ 6.53 µM)
IC95 [2, 4]: 100.00 µg/mL (≈ 327 µM)
IC95 [2, 5]: 10.00 µg/mL (≈ 32.7 µM)
IC95 [2, 6]: 10.00 µg/mL (≈ 32.7 µM)
IC95 [2, 7]: 25.00 µg/mL (≈ 81.6 µM)
Decreases in susceptibility to fluconazole of the isolates ([2]; resistant isolates relative to susceptible strain): up to 400 fold

CCCCNC(=O)n1c(NC(=O)OC)nc2ccccc21 [benomyl]
pIC50 (Phomopsis obscurans; Paraphomopsis obscurans, 120 h, read-out: IC50 (growth inhibition)): > 5.20
